Test results reported in EP4667451A1, “PESTICIDALLY-ACTIVE 2,2-DIHALOCYCLOPROPYL COMPOUNDS” (Syngenta Crop Protection AG, priority 2024, dated 2025).

Legend:
Type in all cases: in vivo
[1] = system: Aphis craccivora (Black bean aphid); experiment: Aphis craccivora (Black bean aphid), mixed population, systemic/feeding, pea seedlings in test solutions; conditions: 120 h, application rate of 24 ppm, assessed 5 days later, read-out: growth inhibition
Procedure: Aphis craccivora (Black bean aphid), mixed population, systemic/feeding Pea seedlings infested with mixed aged aphid population, were put into glass vials with test solutions. 5 days later, samples were assessed for mortality.

[2] = system: Myzus persicae (Green peach aphid); experiment: Myzus persicae (Green peach aphid) intrinsic activity, sucrose solution feeding through Parafilm; conditions: test rate of 12 ppm, assessed 5 days after infestation; for mortality at 12 ppm: Myzus persicae, 120 h
Excerpt: Myzus persicae (Green peach aphid) Intrinsic activity
Test compounds prepared from 10,000 ppm DMSO stock solutions were applied by pipette into 24-well microtiter plates and mixed with sucrose solution. The plates were closed with a stretched Parafilm. A plastic stencil with 24 holes was placed onto the plate and infested pea seedlings were placed directly on the Parafilm. The infested plate was closed with a gel blotting paper and another plastic stencil and then turned upside down. The samples were assessed for mortality 5 days after infestation.

[3] = system: Myzus persicae (Green peach aphid); experiment: Myzus persicae (Green peach aphid) feeding/contact activity, sprayed eggplant leaf discs; conditions: application rate of 200 ppm, assessed 6 days after infestation
Procedure: Myzus persicae (Green peach aphid) Feeding/Contact activity Eggplant leaf discs were placed onto agar in a 24-well microtiter plate and sprayed with aqueous test solutions prepared from 10,000 ppm DMSO stock solutions. After drying, the leaf discs were infested with an aphid population of mixed ages. The samples were assessed for mortality 6 days after infestation.

[4] = system: Myzus persicae (Green peach aphid); experiment: Myzus persicae (Green peach aphid) systemic activity, pea seedling roots in test solution; conditions: 144 h, test rate of 24 ppm, assessed 6 days after placing seedlings into test solutions
Procedure: Myzus persicae (Green peach aphid) Systemic activity
Roots of pea seedlings infested with an aphid population of mixed ages were placed directly into aqueous test solutions prepared from 10,000 DMSO stock solutions. The samples were assessed for mortality 6 days after placing seedlings into test solutions.

In the case of `OCCCCC1CC1(F)Br` (stereo not shown) [Compound A9, 4-(2-bromo-2-fluoro-cyclopropyl)butan-1-ol], the inhibition at 24 ppm [1] is reported as ≥ 80% and the mortality at 12 ppm [2] is reported as ≥ 80%.
For `O=C(OCCCCCCC1CC1(F)Br)c1ccccc1` (stereo not shown) [Compound A8, 6-(2-bromo-2-fluoro-cyclopropyl)hexyl benzoate], the inhibition at 24 ppm [1] was ≥ 80%.
In the case of `OCCCCCCC1CC1(F)Br` (stereo not shown) [Compound A7, 6-(2-bromo-2-fluoro-cyclopropyl)hexan-1-ol], the inhibition at 24 ppm [1] is reported as ≥ 80%.
With “N-[4-(2-bromo-2-fluoro-cyclopropyl)butyl]-2,3-dihydro-1,4-benzodioxine-5-sulfonamide [Compound A27]” the growth inhibition [3] was “at least 80%”.
In the case of `O=C(NCCCCCCC1CC1(F)Br)c1ccccc1` (stereo not shown) [Compound A4, N-[6-(2-bromo-2-fluoro-cyclopropyl)hexyl]benzamide], the mortality at 24 ppm [4] is reported as ≥ 80%.
With `O=C(NCCCCC1CC1(F)Br)N1CCCCC1` (stereo not shown) [Compound A43, N-[4-(2-bromo-2-fluoro-cyclopropyl)butyl]piperidine-1-carboxamide] the mortality at 12 ppm [2] was ≥ 80%.
In the case of “N-[4-(2-bromo-2-fluoro-cyclopropyl)butyl]-6-methyl-pyridine-3-sulfonamide [Compound A10]”, the growth inhibition [3] is reported as “at least 80%”.
For “N-[4-(2-bromo-2-fluoro-cyclopropyl)butyl]-3,5-dimethyl-isoxazole-4-sulfonamide [Compound A11]”, the mortality [2] was “at least 80%”.
For `O=C(NCCCCC1CC1(F)Br)C1CC1` (stereo not shown) [Compound A24, N-[4-(2-bromo-2-fluoro-cyclopropyl)butyl]cyclopropanecarboxamide], the inhibition at 200 ppm ([3]; Myzus persicae, foliar, 144 h, read-out: growth inhibition) was ≥ 80%.
